Results: patent US6169181A, “Compounds useful to treat retroviral infections” (Pharmacia & Upjohn Company, priority 1998, dated 2001)
Read-outs that look alike come from different tables or passages of the source.

Key:
HIV-1 protease [1] = target: T1, HIV-1 protease (Human immunodeficiency virus type 1 group M subtype B, UniProt P04585); assay: biochemical
Summary of the method: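 Biotinylated, FITC-labelled peptide substrate cleaved in 0.1 M sodium acetate pH 5.5, 1.0 M NaCl, 0.05% NP-40, room temperature. Filtered labelled product read by fluorescence; nonlinear least-squares fit.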

HIV-1 protease [2] = target: T1, HIV-1 protease; assay: biochemical; remark: listed apart in the source
Summary of the method: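 Percent inhibition came from fluorescence of FITC-tagged cleavage product, separated by filtration from uncleaved substrate captured on streptavidin-coated beads. The enzyme (10 μl of 0.1 μM) and compound acted on a biotin/FITC dual-labelled peptide for one hour at room temperature in the dark. The reaction ran in 0.1 M sodium acetate, pH 5.5, with 1.0 M NaCl and 0.05% NP-40.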

[3] = Table I, read-out: HIV Protease FITC Assay Ki
[4] = Table I, Dose 0.123 μM, read-out: Protease % Inhib
[5] = Table I, Dose 0.370 μM, read-out: Protease % Inhib
[6] = Table I, Dose 1.100 μM, read-out: Protease % Inhib
[7] = Table I, Dose 3.300 μM, read-out: Protease % Inhib
[8] = Table I, Dose 10.000 μM, read-out: Protease % Inhib
[9] = Table I, Dose 30.000 μM, read-out: Protease % Inhib
[10] = Table II, enzyme HIV-1, read-out: FITC KI
[11] = Table II, enzyme HIV-1, DOSE 0.123 (unit not given)
[12] = Table II, enzyme HIV-1, DOSE 0.370 (unit not given)
[13] = Table II, enzyme HIV-1, DOSE 1.100 (unit not given)
[14] = Table II, enzyme HIV-1, DOSE 3.300 (unit not given)
[15] = Table II, enzyme HIV-1, DOSE 10.000 (unit not given)
[16] = Table II, enzyme HIV-1, DOSE 30.000 (unit not given)

SMILES	Ki (HIV-1 protease [1]; [3])	inhibition at 0.123 µM (HIV-1 protease [2]; [4])	inhibition at 0.37 µM (HIV-1 protease [2]; [5])	inhibition at 1.1 µM (HIV-1 protease [2]; [6])	inhibition at 3.3 µM (HIV-1 protease [2]; [7])	inhibition at 10 µM (HIV-1 protease [2]; [8])	inhibition at 30 µM (HIV-1 protease [2]; [9])	also measured
Cn1ccnc1S(=O)(=O)Cc1cccc(C(c2c(O)c3c(oc2=O)CCCCCC3)C2CC2)c1 (centres unmarked) [Example 15, 3-[cyclopropyl[3-[(2-(1-methylimidazoyl)sulfonyl)methyl]phenyl]methyl]-5,6,7,8,9,10-hexahydro-4-hydroxy-2H-cycloocta[b]pyran-2-one]	2.8 nM	77.6%	88.5%	92.4%	94%	95.8%	99.2%	–
CC[C@H](Cc1ccccc1)c1cc(O)c(C(c2cccc(NS(=O)(=O)c3ncc[nH]3)c2)C2CC2)c(=O)o1 (stereo partly drawn) [Example 147, N-(3-{Cyclopropyl-[6-(1-(R)-ethylphenethyl)-4-hydroxy-2-oxo-2H-pyran-3-yl]-methyl}-phenyl)-1H-imidazole-2-sulfonamide]	–	77.5%	103%	112%	110%	114%	108%	Ki (HIV-1 protease [1]; read-out: HIV Protease FITC Assay Ki): 1 nM
CC[C@H](Cc1ccccc1)c1cc(O)c(C(c2cccc(NS(=O)(=O)c3nc4ccccc4[nH]3)c2)C2CC2)c(=O)o1 (stereo partly drawn) [Example 146, N-(3-{Cyclopropyl-[6-(1-(R)-ethylphenethyl)-4-hydroxy-2-oxo-2H-pyran-3-yl]-methyl}-phenyl)-benzimidazole-2-sulfonamide]	0.69 nM	68.1%	87.4%	103%	103%	103%	102%	–
CCCC1(CCc2ccccc2)CC(O)=C(C(c2cccc(NS(=O)(=O)c3ccc(C#N)cc3)c2)C2CC2)C(=O)O1 (centres unmarked) [Example 58]	3.8 nM	64.9%	83.7%	94.2%	95.9%	100%	89.8%	–
CCCC1(CCC)CC(O)=C(C(CC)c2cccc(NS(=O)(=O)c3cn(C)cn3)c2)C(=O)O1 (centres unmarked) [Example 44, N-[3-[1-(4-hydroxy-2-oxo-6,6-dipropyl-5,6-dihydro-2H-pyran-3-yl)-propyl]-phenyi]-1-methyl-1H-imidazolesulfonamide]	1.8 nM	98.4%	114%	120%	113%	102%	80%	–
CCC(CC1CCCOC1)c1cc(O)c(C(c2cccc(NS(=O)(=O)c3cn(C)cn3)c2)C2CC2)c(=O)o1 (centres unmarked) [Example 145B, N-(3-[Cyclopropyl[4-hydroxy-2-oxo-6-[1-[(tetrahydro-2H-pyran-3-yl)methyl]propyl]-2H-pyran-3-yl]methyl]phenyl]-1-methyl-1H-imidazole-4-sulfonamide]	1.24 nM	81.8%	88.4%	96.5%	87.8%	102%	84.5%	–
CCCC1(CCC)CC(O)=C(C(CC)c2cccc(NS(=O)(=O)c3cn(C)cn3)c2)C(=O)O1 (single isomer, unassigned) [Example 55, (S or R)-N-[3-[1-(4-hydroxy-2-oxo-6,6-dipropyl-5,6-dihydro-2H-pyran-3-yl)-propyl]-phenyl]-1-methyl-1H-imidazole-4-sulfonamide]	1.7 nM	–	–	–	–	–	–	PROTEASE % INHIB. (HIV-1 protease [2]; Table I, Dose 0.123 μM): < 10%; PROTEASE % INHIB. (HIV-1 protease [2]; Table I, Dose 0.370 μM): 18.77%; PROTEASE % INHIB. (HIV-1 protease [2]; Table I, Dose 1.100 μM): 58.27%; PROTEASE % INHIB. (HIV-1 protease [2]; Table I, Dose 3.300 μM): 86.98%; PROTEASE % INHIB. (HIV-1 protease [2]; Table I, Dose 10.000 μM): 98.33%; PROTEASE % INHIB. (HIV-1 protease [2]; Table I, Dose 30.000 μM): 85.88%
Cn1cnc(S(=O)(=O)Nc2cccc(C(C3=C(O)CC(CCc4ccccc4)(CCc4ccccc4)OC3=O)C(C)(C)C)c2)c1 (centres unmarked) [Example 343, N-[3-{1-(4-Hydroxy-5,6-dihydro-2-oxo-6,6-bis(2-phenylethyl)-2H-pyran-3-yl)-2,2-dimethylpropyl}phenyl]-1-methyl-1H-imidazole-4-sulfonamide]	–	–	–	–	–	–	–	Ki (HIV-1 protease [1]; [10]): 2.9 nM; PROTEASE % INHIB. (HIV-1 protease [2]; [11]): 57.5%; PROTEASE % INHIB. (HIV-1 protease [2]; [12]): 76.83%; PROTEASE % INHIB. (HIV-1 protease [2]; [13]): 81.02%; PROTEASE % INHIB. (HIV-1 protease [2]; [14]): 86.43%; PROTEASE % INHIB. (HIV-1 protease [2]; [15]): 60.56%; PROTEASE % INHIB. (HIV-1 protease [2]; [16]): 46%
CCC(CC1CCCOC1)c1cc(O)c(C(c2cccc(NS(=O)(=O)c3cccc4cccnc34)c2)C2CC2)c(=O)o1 (centres unmarked) [Example 145A, N-(3-[Cyclopropyl[4-hydroxy-2-oxo-6-[1-[(tetrahydro-2H-pyran-3-yl)methyl]propyl]-2H-pyran-3-yl]methyl]phenyl]-8-quinolinesulfonamide]	1.1 nM	109%	111%	119%	115%	113%	114%	–
CCCC1(CCC)CC(O)=C(C(c2cccc(NS(=O)(=O)c3cn(C)cn3)c2)C2CC2)C(=O)O1 (centres unmarked) [Example 48]	0.52 nM	111%	104%	110%	89.3%	111%	105%	–
CCC(CC1CCOCC1)c1cc(O)c(C(c2cccc(NS(=O)(=O)c3nccn3C)c2)C2CC2)c(=O)o1 (centres unmarked) [Example 145, N-(3-{Cyclopropyl-[6-(1-(tetrahydropyran-4-ylmethyl)-propyl)-4-hydroxy-2-oxo-2H-pyran-3-yl]-methyl}-phenyl)-1-methyl-1H-imidazole-2-sulfonamide]	0.49 nM	73.6%	89.8%	99.7%	94.8%	96.8%	88%	–
CN(c1cccc(C(c2c(O)c3c(oc2=O)CCCCCC3)C2CC2)c1)S(=O)(=O)c1ccc(C#N)cc1 (centres unmarked) [Example 192, 4-Cyano-N-methyl-N-[3-[cyclopropyl(5,6,7,8,9,10-hexahydro-4-hydroxy-2-oxo-2H-cycloocta[b]pyran-3-yl)methyl]phenyl]-benzenesulfonamide]	7.2 nM	44%	76.3%	94%	96.9%	103%	94.4%	–
O=c1oc(C(CC2CC2)CC2CC2)cc(O)c1C(c1cccc(NS(=O)(=O)c2nc3ccccc3[nH]2)c1)C1CC1 (centres unmarked) [Example 101, N-(3-{Cyclopropyl-[6-(2-cyclopropyl-1-cyclopropylmethyl-ethyl)-4-hydroxy-2-oxo-2H-pyran-3-yl]-methyl}-phenyl)-1H-benzo-imidazole-2-sulfonamide]	0.66 nM	70.2%	84%	93.3%	97%	102%	97.3%	–
CCC(CCBr)c1cc(O)c(C(c2cccc(NS(=O)(=O)c3cn(C)cn3)c2)C2CC2)c(=O)o1 (centres unmarked) [Example 108, N-(3-{[6-(3-Bromo-1-ethyl-propyl)-4-hydroxy-2-oxo-2H-pyran-3-yl]-cyclopropyl-methyl}-phenyl)-1-methyl-1H-imidazole-4-sulfonamide]	0.16 nM	103%	102%	102%	–	108%	106%	inhibition at 3.39 µM (HIV-1 protease [2]; Table I, Dose 3.390 μM, read-out: Protease % Inhib): 102%
CC(C)(C)C(C1=C(O)CC(CCc2ccccc2)(CCc2ccccc2)OC1=O)c1cccc(NS(=O)(=O)c2ccc(N)cn2)c1 (single isomer, unassigned) [Example 355, N-[3-{1(R or S)-(4-Hydroxy-5,6-dihydro-2-oxo-6,6-bis(2-phenylethyl)-2H-pyran-3-yl)-2,2-dimethylpropyl}phenyl]-5-aminopyridine-2-sulfonamide]	–	–	–	–	–	–	–	Ki (HIV-1 protease [1]; [10]): 700 nM; PROTEASE % INHIB. (HIV-1 protease [2]; [11]): < 10%; PROTEASE % INHIB. (HIV-1 protease [2]; [12]): < 10%; PROTEASE % INHIB. (HIV-1 protease [2]; [13]): < 10%; PROTEASE % INHIB. (HIV-1 protease [2]; [14]): 20.72%; PROTEASE % INHIB. (HIV-1 protease [2]; [15]): 46.66%; PROTEASE % INHIB. (HIV-1 protease [2]; [16]): 67.82%
CCC(Cc1ccccc1)c1cc(O)c(C(c2cccc(NS(=O)(=O)c3ccc([N+](=O)[O-])cc3)c2)C2CC2)c(=O)o1 (centres unmarked) [Example 150, N-(3-{Cyclopropyl-[6-(1-ethylphenethyl)-4-hydroxy-2-oxo-2H-pyran-3-yl]-methyl}-phenyl)-4-nitrobenzenesulfonamide]	5.9 nM	78.4%	96.5%	100%	103%	107%	109%	–
CN(c1cccc(C(c2c(O)c3c(oc2=O)CCCCCC3)C2CC2)c1)S(=O)(=O)c1ccc(F)cc1 (centres unmarked) [Example 193, 4-Fluoro-N-methyl-N-[3-[cyclopropyl(5,6,7,8,9,10-hexahydro-4-hydroxy-2-oxo-2H-cycloocta[b]pyran-3-yl)methyl]phenyl]-benzenesulfonamide]	35 nM	18.4%	40.3%	77.7%	98.1%	108%	103%	–
